The source of these data is patent US7060716B2, “Tryptase inhibitors” (Altana Pharma AG, priority 2001, dated 2006).

Structures can show the parent of a compound that is named as a salt.

The assay addresses T1, human tryptase (Homo sapiens, UniProt P20231).
T1 construct: from tissue
Description: Inhibition of human tryptase (apparent dissociation constant Kiapp, chromogenic substrate tos-Gly-Pro-Arg-pNA). The conditions noted are these: apparent dissociation constant in the presence of substrate; heparin 0.1–50 μg/ml; equilibrium conditions; read-out: Klapp. It counts as biochemical. From the text:
The documented pathophysiological effects of mast cell tryptase are caused directly by the enzymatic activity of the protease. Accordingly, they are reduced or blocked by inhibitors which inhibit the enzymatic activity of the tryptase. A suitable measure for the affinity of a reversible inhibitor to the target protease is the equilibrium dissociation constant Ki of the enzyme-inhibitor complex. This Ki value can be determined via the effect of the inhibitor on the tryptase-induced cleavage of a chromogenic peptide-p-nitroanilide substrate or a fluorogenic peptide-aminomethylcoumarin substrate.
The dissociation constants for the tryptase-inhibitor complexes are determined under equilibrium conditions in accordance with the general proposals of Bieth (Bieth J G, Pathophysiological Interpretation of kinetic constants of protease inhibitors, Bull. Europ. Physiopath. Resp. 16:183–195, 1980) and the methods of Sommerhoff et al. (Sommerhoff C P et al., A Kazal-type inhibitor of human mast cell tryptase: Isolation from the medical leech Hirudo medicinalis, characterization, and sequence analysis, Biol. Chem. Hoppe-Seyler 375: 685–694, 1994).
Human tryptase is isolated from lung tissue or prepared recombinantly; the specific activity of the protease, determined by titration, is usually greater than 85% of the theoretical value. […]

T1 sequence (P20231 31-275): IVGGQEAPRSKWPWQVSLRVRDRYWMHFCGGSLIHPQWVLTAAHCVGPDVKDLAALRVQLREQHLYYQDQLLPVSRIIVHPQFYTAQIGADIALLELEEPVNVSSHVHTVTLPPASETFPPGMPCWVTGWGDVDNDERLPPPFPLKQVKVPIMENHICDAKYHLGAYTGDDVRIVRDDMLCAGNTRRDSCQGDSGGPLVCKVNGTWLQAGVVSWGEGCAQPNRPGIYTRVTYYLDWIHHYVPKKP

`NCc1cccc(CNC(=O)OCC#Cc2cccc(C#CCOC(=O)NCc3cccc(CN)c3)n2)c1` [Compound 1, 2,6-Bis-[3-(3-aminomethylbenzylaminocarbonyloxy)prop-1-ynyl]pyridine trihydrochloride]: the Ki stood at 2.6 nM. `NCc1ccc(CNC(=O)OCC#Cc2cccc(C#CCOC(=O)NCc3ccc(CN)cc3)n2)cc1` [Compound 2, 2,6-Bis-[3-(4-aminomethylbenzylaminocarbonyloxy)prop-1-ynyl]pyridine trihydrochloride]: the Ki came out at 6 nM.
